“Also recorded” adds a separate entry of the source.
How the values were obtained:
Tet3 mRNA [1] = assay: Tet3 mRNA (RT-qPCR) in GT1-7 cells; type: cell-based, mouse; conditions: 10 μM, 6 h
Method: (§1) For Bobcat339 treatment (FIG. 15A and FIG. 15B), GT1-7 cells grown in 24-well plates at 2×10^5 cells/well were incubated with vehicle or Bobcat339 at a final concentration of 10 μM for 6 h, followed by RNA and protein extractions. For TET3 protein stability assay (FIG. 15B), GT1-7 cells in 24-well plates at 2×10^5 cells/well were incubated with vehicle or Bobcat339 at a final concentration of 10 μM for 3 hours, followed by addition of cycloheximide (CHX, Cell Signaling, 2112) at a final concentration of […] in the presence of 10 μM of Bobcat339. Proteins were harvested at 0, 1, 2, and 3 hours after addition of CHX. For TET3 expression restoration experiments (FIG. 15C and FIG. 15D), GT1-7 or SH-SY5Y cells seeded in 24-well plates at 2×10^5 cells/well were infected with Ad-GFP or Ad-TET3 at 4000 gc/cell. Following 16 h of infection, vehicle or Bobcat339 were added at a final concentration of 10 μM. Protein and RNA were isolated 48 h later and analyzed.
(§2) Total RNAs were extracted from neuronal cells or homogenized hypothalamic arcuate nucleus tissue samples using PureLink RNA Mini Kit (Ambion, 12183025). cDNA was synthesized using PrimeScript RT Reagent Kit in a 20 μl reaction containing 0.5-1 μg of total RNA. Real-time quantitative PCR was performed in a 15 μl reaction containing 0.5-1 μl of cDNA using SsoAdvanced Universal SYBR Green Supermix in a Bio-Rad iCycler. […]

TET3 = TET3 protein stability (cycloheximide time course) in GT1-7 cells; type: cell-based; conditions: 10 μM, with cycloheximide; mouse neuronal cells
Method: as §1

Agrp, Npy and Slc32a1 [2] = assay: Agrp, Npy and Slc32a1 mRNA in GT1-7 cells; type: cell-based, mouse; conditions: 10 μM, 48 h
From the text: (§3) Mouse GT1-7 hypothalamic neuronal cell line (Sigma-Aldrich, SCC116) and human SH-SY5Y neuroblastoma cell line (Sigma Aldrich, 94030304) were purchased and cultured according to the manufacturers' instructions. Purified Ad-TET3 adenovirus (Ad-FLAG.h-TET3, ADV-225322, Vector Biolabs) expressing human TET3 from a CMV promoter and Ad-GFP control adenovirus (1060, Vector Biolabs) were purchased.
(§4) For Bobcat339 treatment (FIG. 15A and FIG. 15B), GT1-7 cells grown in 24-well plates at 2×10^5 cells/well were incubated with vehicle or Bobcat339 at a final concentration of 10 μM for 6 h, followed by RNA and protein extractions. […] Protein and RNA were isolated 48 h later and analyzed.
as §2

AGRP, NPY and SLC32A1 [3] = assay: AGRP, NPY and SLC32A1 mRNA in SH-SY5Y cells; type: cell-based, human; conditions: 10 μM, 48 h
From the text: as §3, §4, §2

Tet3 mRNA [4] = assay: Tet3/Tet2 mRNA in RAW 264.7 cells; type: cell-based, mouse; conditions: RAW 264.7, 10 μM, 24 h
Method: For siRNA transfection in a 24-well plate scale of Raw 264.7 cells, 10 pmol of NT siRNA (AM4636, Ambion) or Tet3 siRNA (4390815/s101483, Ambion) was mixed with 100 μL of OPTI-MEM (Gibco, 31985-070) by gentle pipetting. In parallel, 3 μL of Lipofectamine RNAiMAX (Invitrogen, 13778-150) was mixed with 100 μL of OPTI-MEM by gentle pipetting. Following 5 min of incubation at RT, the two were combined and the resulting 200 μL of transfection solution was added to each well of cells. After 24 h of incubation at […] in a 5% humidified CO2 tissue culture incubator, 300 μL of growth media was added and incubation was continued until cell harvesting.
Bobcat339 Treatment of Cultured Cells Bobcat339 powder (Sigma-Aldrich, SML2611) was freshly dissolved in DMSO at a concentration of 5 mM and filtered through a 0.22 micron. Cells grown at a density of 80-90% were incubated in growth media with vehicle (DMSO) or Bobcat339 at a final concentration of 10 μM for 24 h, followed by RNA and protein extraction.
(§5) Total RNAs were extracted from cells using PureLink RNA Mini Kit. 0.5-1 μg total RNA was reverse transcribed to cDNA in a reaction volume of 20 μL using PrimeScript RT Reagent Kit. Real-time quantitative PCR was performed in a 15 μL reaction volume containing 0.5-1 μL of cDNA using SsoAdvanced Universal SYBR Green Supermix in a Bio-Rad iCycler. Gene expression levels were normalized against RPLP0.

MDMs = assay: TUNEL assay in human MDMs; type: cell-based; conditions: 10 μM, 48 h
Method: For TET3 expression restoration experiments, cells seeded in 24-well plates were infected with Ad-GFP or Ad-TET3 at 4000 gc/cell. Following 16 h of infection, vehicle or Bobcat339 were added at a final concentration of 10 μM. Protein and RNA were isolated 48 hours later and analyzed.
These were performed using the In Situ Cell Death Detection Kit (Sigma Aldrich, 12156792910). Briefly, cells were fixed with 4% paraformaldehyde in PBS for 1 h at RT and rinsed with PBS, followed by permeabilization with 0.1% Triton X-100 in 0.1% sodium citrate for 2 min on ice. TUNEL reaction mixture was added and incubation was carried out at 37 °C for 60 min. DAPI was added to counter-stain the cells for 1 min. The slides were coverslipped and scoped using a Keyence BZ-X700 fluorescence microscope.

Bcl2l11, Bid and Pmaip1 = assay: Pro-apoptosis gene expression in mouse peritoneal macrophages; type: cell-based; conditions: TGF-b1 primed mouse peritoneal macrophages, 10 μM, 48 h
Method: For cultured mouse peritoneal macrophages, cells were primed with 30 ng/ml of TGF-β1 (R&D Systems, 7666-MB0-005) for 48 h (to increase TET3 expression) before Bobcat339 treatment. Bobcat339 (or DMSO) was added at a final concentration of 10 μM, followed by RNA and protein extraction at time points indicated in the figure legends.
as §5

[5] = dosage and administration regimes used; cited from earlier work

With `Nc1nc(=O)n(-c2cccc(-c3ccccc3)c2)cc1Cl` [Bobcat339, 4-Amino-1-[1,1′-biphenyl]-3-yl-5-chloro-2(1H)-pyrimidinone] the “Tet3 mRNA abundance” value (Tet3 mRNA [1]) was “without affecting its mRNA abundance; also recorded: without altering its mRNA abundance; also recorded: no significant difference between the two groups”, the TET3 protein stability (TET3) was “induced protein degradation of TET3; also recorded: less stable” and the “Agrp, Npy and Slc32a1 mRNA levels” value (Agrp, Npy and Slc32a1 [2]; with TET3-expressing adenovirus (Ad-TET3)) was “not seen when the level of TET3 protein was restored; also recorded: not seen when TET3 was overexpressed”. For the same compound, the “Agrp, Npy and Slc32a1 mRNA levels” value (Agrp, Npy and Slc32a1 [2]; without exogenous TET3) was “increased in the mRNA levels of both Agrp and Npy; also recorded: increases in the mRNA levels of Agrp, Npy and Slc32a1; also recorded: significant increases in the Agrp/Nyp mRNAs”, the “AGRP, NPY and SLC32A1 mRNA levels” value (AGRP, NPY and SLC32A1 [3]) was “significant increases in Agrp/NPY mRNAs” and the “Tet3 mRNA” value (Tet3 mRNA [4]) was “without altering its mRNA abundance; also recorded: no significant difference in expression between the groups”. The “apoptosis (TUNEL)” value (MDMs) was “increased apoptosis; also recorded: induced apoptosis; also recorded: a significant increase in pyroptotic cell death”, the “apoptosis (TUNEL / Caspase-1)” value (MDMs; with Ad-TET3) was “abolished when TET3 protein was restored to control levels; also recorded: not seen when TET3 expression level was restored” and the “Bcl2l11, Bid and Pmaip1 expression” value (Bcl2l11, Bid and Pmaip1) was “an upregulation of all three pro-apoptosis genes”. The adverse pathology [5] was “minimal adverse pathology”.
